Target: T1, CueO (copper efflux oxidase) (Escherichia coli, UniProt P36649)
T1 sequence (P36649 29-516): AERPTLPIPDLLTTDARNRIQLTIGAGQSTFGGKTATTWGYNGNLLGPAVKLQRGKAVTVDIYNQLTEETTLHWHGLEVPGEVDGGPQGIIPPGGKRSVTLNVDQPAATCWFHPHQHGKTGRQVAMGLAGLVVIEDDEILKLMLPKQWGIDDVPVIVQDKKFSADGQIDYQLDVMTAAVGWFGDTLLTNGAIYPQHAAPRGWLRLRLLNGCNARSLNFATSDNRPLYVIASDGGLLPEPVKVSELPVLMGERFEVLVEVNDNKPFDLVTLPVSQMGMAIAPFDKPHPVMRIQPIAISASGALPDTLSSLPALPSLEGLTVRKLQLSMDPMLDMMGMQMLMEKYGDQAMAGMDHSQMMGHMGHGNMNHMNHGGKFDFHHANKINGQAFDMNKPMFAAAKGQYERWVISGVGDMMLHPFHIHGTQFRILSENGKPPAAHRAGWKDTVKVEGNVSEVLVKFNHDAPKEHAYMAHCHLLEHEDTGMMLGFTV
Settings: immobilised on cysteamine-modified polycrystalline Au; O2-saturated phosphate buffer; 100-200 mM fluoride; direct electron transfer

Compound: F [F−, sodium fluoride]
- cyclic voltammetry and chronoamperometry of electrocatalytic O2 reduction: the current density decreases significantly after the addition of fluoride

— article PMC6117412, “Comprehensive Study of the Enzymatic Catalysis of the Electrochemical Oxygen Reduction Reaction (ORR) by Immobilized Copper Efflux Oxidase (CueO) From Escherichia coli” (Frontiers in Chemistry, 2018)
